Assay: Basic (simple static) model prediction of clinical DUT-KET interaction
Design: species or system human
Conditions: clinical prediction from HLM data, R = 1 + Imax,u / Ki
Experimental: Supplementary Materials: In Vitro and In Vivo
Assessment of Metabolic Drug Interaction Potential of Dutasteride with Ketoconazole
Table S1. Previous literatures on bioanalytical methods for DUT using HPLC system coupled with ultraviolet-visible (UV/Vis) and tandem mass (MS/MS) detector.
Detector Matrix Sample Sample Preparation Mobile Phase Conc. Range Validation Ref.
LC-MS/MS Human plasma 300 µL LLE Isocratic 0.1-25 ng/mL Full
LC-MS/MS Human plasma 500 µL LLE Gradient 0.1-25 ng/mL Full
LC-MS/MS Human plasma 500 µL SPE Gradient 1-100 ng/mL Full
LC-MS/MS Human plasma 500 µL SPE Isocratic 0.1-10 ng/mL Full
LC-MS/MS Human plasma 900 µL LLE Isocratic 0.5-50 ng/mL Full
LC-MS/MS Human plasma 1000 µL LLE Gradient 0.05-4 ng/mL Full
LC-MS/MS Human Serum 2000 µL LLE NR 0.025-2.5 ng/mL Partial
LC-MS/MS Human Urine 5000 µL SPE Gradient NR Partial
LC-MS/MS Rat plasma 100 µL LLE Isocratic 1-500 ng/mL Partial
LC-MS/MS Rat plasma 100 µL LLE Isocratic 5-400 ng/mL Partial
HPLC-UV Rat blood 100 µL Deproteinization Gradient NR Partial […]
where the R is the predicted ratio of the AUC of DUT in the presence and absence of KET, the Imax,u is the maximum unbound plasma concentration of KET, and the Ki is the unbound inhibition constant of KET determined in vitro. Since IC50 only was determined in this study, it was converted to Ki using the following equation for competitive inhibition. […]

In the case of `C[C@]12C=CC(=O)N[C@@H]1CC[C@@H]1[C@@H]2CC[C@]2(C)[C@@H](C(=O)Nc3cc(C(F)(F)F)ccc3C(F)(F)F)CC[C@@H]12` [DUT, Dutasteride], the “R, predicted ratio of the AUC of DUT in the presence and absence of KET” value is reported as 2.88.

Reference: article PMC6956158, “In Vitro and In Vivo Assessment of Metabolic Drug Interaction Potential of Dutasteride with Ketoconazole” (Pharmaceutics, 2019)
